Data from patent EP4603105A1, “PHARMACEUTICAL COMPOSITION CONTAINING CYCLIC COMPOUND HAVING SELECTIVE KRAS INHIBITORY EFFECT AGAINST HRAS AND NRAS” (CHUGAI SEIYAKU KABUSHIKI KAISHA, priority 2022, dated 2024).
pIC50: −log10 of the molar value. Where a SMILES comes first, the peptide text is derived from it. Bridges are numbered along the chain shown (N, C = ends). [ ]: non-standard residue; d: D form. The star is where a group is joined. hPhe(3-Cl-4-CF3) = N[C@@H](CCc1ccc(C(F)(F)F)c(Cl)c1)C(=O)O; NPrPhe(4-CF3) = CCCN[C@@H](Cc1ccc(C(F)(F)F)cc1)C(=O)O; NPrPhe(4-Me) = CCCN[C@@H](Cc1ccc(C)cc1)C(=O)O; NEtPhe(4-Me) = CCN[C@@H](Cc1ccc(C)cc1)C(=O)O; NMePhe(4-Me) = CN[C@@H](Cc1ccc(C)cc1)C(=O)O; NMeGly(cPent) = CN[C@H](C(=O)O)C1CCCC1; NMeD = CN[C@@H](CC(=O)O)C(=O)O; NMeL = CN[C@@H](CC(C)C)C(=O)O; NMeS = CN[C@@H](CO)C(=O)O; Pip = O=C(O)[C@@H]1CCCCN1; Morpholide = C1CN(*)CCO1; NMeA = CN[C@@H](C)C(=O)O; Ac5c = NC1(C(=O)O)CCCC1; Aze = O=C(O)[C@@H]1CCN1; Ac4c = NC1(C(=O)O)CCC1; NEtG = CCNCC(=O)O; Sar = CNCC(=O)O

Tests used:
[1] = target: GDP-bound NRAS wild-type protein (Homo sapiens, UniProt P01111); experiment: Binding to NRAS by surface plasmon resonance (SPR), KD and KD ratio to KRAS
Procedure, shortened: (§1)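 Each cycle, GDP-bound biotin-Avi RAS was captured (~100–300 RU), compound concentrations were injected low to high for 75 s each at 100 µL/min, then the chip was regenerated. Buffer: HBS pH 7.4, 10 mM MgCl2, 10 µM GDP, 1 mM DTT, 4% DMSO; 30°C. KD from a 1:1 binding model.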

HRAS wild-type protein = HRAS wild-type protein (Homo sapiens, UniProt P01112); experiment: Binding to HRAS by surface plasmon resonance (SPR), KD and KD ratio to KRAS
Procedure, shortened: as §1

[2] = system: human lung cancer strain NCI-H441; assay type: cell-based
Procedure, shortened: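 Signal came from […] measured per well once the reagent was added. Beforehand, cells were cultured at 37°C and 5% carbon dioxide on a compound series serially diluted in dimethyl sulfoxide.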

[3] = ratio of KD for GDP-bound NRAS wild-type protein to KD for KRAS
[4] = ratio of KD for HRAS wild-type protein to KD for KRAS
[5] = ratio of the KD value with respect to GDP-bound NRAS wild-type protein to the KD value with respect to KRAS
[6] = ratio of the KD value with respect to HRAS wild-type protein to the KD value with respect to KRAS

GDP-bound NRAS wild-type protein, sequence (P01111 whole entry): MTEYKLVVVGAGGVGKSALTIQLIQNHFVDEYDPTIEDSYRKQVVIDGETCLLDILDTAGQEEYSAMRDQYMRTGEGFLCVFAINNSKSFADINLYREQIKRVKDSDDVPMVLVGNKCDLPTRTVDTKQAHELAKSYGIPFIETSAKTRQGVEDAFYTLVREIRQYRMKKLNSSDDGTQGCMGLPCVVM
HRAS wild-type protein, sequence (P01112 whole entry): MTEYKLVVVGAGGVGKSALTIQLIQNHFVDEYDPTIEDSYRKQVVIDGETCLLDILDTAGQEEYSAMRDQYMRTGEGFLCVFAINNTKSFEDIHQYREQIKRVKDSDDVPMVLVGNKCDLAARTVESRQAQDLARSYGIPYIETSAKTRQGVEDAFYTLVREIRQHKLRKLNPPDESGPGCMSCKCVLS

Row | Structure (SMILES) | NRAS /KRAS [1, 3] | HRAS /KRAS (HRAS wild-type protein; [4]) | pIC50 [2] | NRAS /KRAS [1, 5] | HRAS /KRAS (HRAS wild-type protein; [6]) | NRAS /KRAS ([1]; ratio of KD value for GDP-bound NRAS wild-type protein to KD value for KRAS (SPR)) | HRAS /KRAS (HRAS wild-type protein; ratio of KD value for HRAS wild-type protein to KD value for KRAS (SPR))
1 | CCO[C@@H]1C[C@H]2C(=O)NC3(CCC3)C(=O)N(C)[C@@H](CC(F)F)C(=O)N(C)[C@H](C(=O)N3CCOCC3)CC(=O)N(C)[C@@H](CC(C)C)C(=O)N[C@@H]([C@@H](C)CC)C(=O)N(C)CC(=O)N(C)[C@H]3CCCCN(C3=O)[C@@H](Cc3ccc(C(F)(F)F)cc3)C(=O)N(C)CC(=O)N[C@@H](CCc3cc(F)c(C(F)(F)F)c(F)c3)C(=O)N2C1 [PP0813] | C (A compound having a KD ratio of 0.1 or more and less than 3 is denoted as C) | B (a compound having 3 or more and less than 10 is denoted as B) | 7.04 | – | – | – | –
2 | CCCN1C(=O)CN(CC)C(=O)CNC(=O)[C@H]([C@@H](C)CC)NC(=O)[C@H](CC(C)C)N(C)C(=O)C[C@@H](C(=O)N2CCOCC2)N(C)C(=O)[C@H](C2CCCC2)N(C)C(=O)C2(CCCC2)NC(=O)[C@@H]2CCCN2C(=O)[C@H](CCc2ccc(C(F)(F)F)c(Cl)c2)NC(=O)CN(C)C(=O)[C@@H]1Cc1ccc(C(F)(F)F)cc1 [PP1968] ([NMeL]IG[NEtG][NPrPhe(4-CF3)][Sar][hPhe(3-Cl-4-CF3)]P[Ac5c][NMeGly(cPent)][NMeD]-Morpholide; lactam N-11) | – | – | 7.87 | C (A compound having a KD ratio of 0.1 or more and less than 3 is denoted as C) | C (A compound having a KD ratio of 0.1 or more and less than 3 is denoted as C) | – | –
3 | CCCN1C(=O)CN(C)C(=O)CN(C)C(=O)[C@H]([C@@H](C)CC)NC(=O)[C@H](CC(C)C)N(C)C(=O)C[C@@H](C(=O)N2CCOCC2)N(C)C(=O)[C@H](C2CCCC2)N(C)C(=O)C2(CCCC2)NC(=O)[C@@H]2CCCN2C(=O)[C@H](CCc2ccc(C(F)(F)F)c(Cl)c2)NC(=O)CN(C)C(=O)[C@@H]1Cc1ccc(C)cc1 [PP0059] ([NMeL]I[Sar][Sar][NPrPhe(4-Me)][Sar][hPhe(3-Cl-4-CF3)]P[Ac5c][NMeGly(cPent)][NMeD]-Morpholide; lactam N-11) | B (a compound having 3 or more and less than 10 is denoted as B) | C (A compound having a KD ratio of 0.1 or more and less than 3 is denoted as C) | 8.21 | – | – | – | –
4 | CC[C@H](C)[C@@H]1NC(=O)[C@H](CC(C)C)N(C)C(=O)C[C@@H](C(=O)N2CCOCC2)N(C)C(=O)[C@H](C2CCCC2)N(C)C(=O)C2(CCCC2)NC(=O)[C@@H]2CCCN2C(=O)[C@H](CCc2ccc(C(F)(F)F)c(Cl)c2)NC(=O)CN(C)C(=O)[C@H](Cc2ccc(C)cc2)N(C)C(=O)[C@H](CO)N(C)C(=O)CN(C)C1=O [PP0037] ([NMeL]I[Sar][NMeS][NMePhe(4-Me)][Sar][hPhe(3-Cl-4-CF3)]P[Ac5c][NMeGly(cPent)][NMeD]-Morpholide; lactam N-11) | C (A compound having a KD ratio of 0.1 or more and less than 3 is denoted as C) | C (A compound having a KD ratio of 0.1 or more and less than 3 is denoted as C) | 6.37 | – | – | – | –
5 | CCO[C@@H]1C[C@H]2C(=O)NC3(CCC3)C(=O)N(C)[C@@H](C3CCCC3)C(=O)N(CCc3ccccc3)[C@H](C(=O)N(C)C)CC(=O)N(C)[C@@H](CC)C(=O)N[C@@H]([C@@H](C)CC)C(=O)N(C)CC(=O)N(C)[C@H]3CCCCN(C3=O)[C@@H](Cc3ccc(C(F)(F)F)cc3)C(=O)N(C)CC(=O)N[C@@H](CCc3cc(F)c(C(F)(F)F)c(F)c3)C(=O)N2C1 [PP0647] | – | – | 7.35 | C (A compound having a KD ratio of 0.1 or more and less than 3 is denoted as C) | B (a compound having 3 or more and less than 10 is denoted as B) | – | –
6 | C#CC[C@H]1C(=O)N[C@@H]([C@@H](C)CC)C(=O)N(C)CC(=O)N(C)[C@H]2CCCCN(C2=O)[C@@H](Cc2ccc(C(F)(F)F)cc2)C(=O)N(C)CC(=O)N[C@@H](CCc2cc(F)c(C(F)(F)F)c(F)c2)C(=O)N2C[C@H](OCC)C[C@H]2C(=O)NC2(CCC2)C(=O)N(C)[C@@H](C2CCCC2)C(=O)N(C)[C@H](C(=O)N(C)C)CC(=O)N1C [PP0696] | – | – | 8.48 | B (a compound having 3 or more and less than 10 is denoted as B) | B (a compound having 3 or more and less than 10 is denoted as B) | – | –
7 | CCO[C@@H]1C[C@H]2C(=O)N(C)C3(CCC3)C(=O)N(C)[C@@H](C(CC)CC)C(=O)N(C)[C@H](C(=O)N(C)C)CC(=O)N(C)[C@@H](COC)C(=O)N[C@@H]([C@@H](C)CC)C(=O)N(C3CC3)CC(=O)N(C)[C@H]3C/C=C\CCN(C3=O)[C@@H](CC3CCCCC3)C(=O)N(C)CC(=O)N[C@@H](CCc3ccc(C(F)(F)F)c(OC)c3)C(=O)N2C1 [PP2339] | – | – | 7.23 | A (a compound having 10 or more and less than 20 is denoted as A) | A (a compound having 10 or more and less than 20 is denoted as A) | – | –
8 | CCCN1C(=O)CN(C)C(=O)[C@@H]2CCN2C(=O)[C@H]([C@@H](C)CC)NC(=O)[C@H](CC(C)C)N(C)C(=O)C[C@@H](C(=O)N2CCOCC2)N(C)C(=O)[C@H](C2CCCC2)N(C)C(=O)C2(CCCC2)NC(=O)[C@@H]2CCCCN2C(=O)[C@H](CCc2ccc(C(F)(F)F)c(Cl)c2)NC(=O)CN(C)C(=O)[C@@H]1Cc1ccc(C(F)(F)F)cc1 [PP0311] ([NMeL]I[Aze][Sar][NPrPhe(4-CF3)][Sar][hPhe(3-Cl-4-CF3)][Pip][Ac5c][NMeGly(cPent)][NMeD]-Morpholide; lactam N-11) | B (a compound having 3 or more and less than 10 is denoted as B) | B (a compound having 3 or more and less than 10 is denoted as B) | 6.83 | – | – | – | –
9 | CC[C@H](C)[C@@H]1NC(=O)[C@H](C2CCC2)N(C)C(=O)C[C@@H](C(=O)N(C)C)N(C)C(=O)[C@H](C2CCCC2)N(C)C(=O)C2(CC(C)(C)C2)NC(=O)[C@@H]2C[C@H](C)CN2C(=O)[C@H](CCc2ccc(C(F)(F)F)c(OC)c2)NC(=O)CN(C)C(=O)[C@H](Cc2ccc(C(F)(F)F)cc2)N2CC/C=C\C[C@@H](C2=O)N(C)C(=O)CN(C)C1=O [PP2011] | – | – | 7.99 | A (a compound having 10 or more and less than 20 is denoted as A) | A (a compound having 10 or more and less than 20 is denoted as A) | – | –
10 | CCCN1C(=O)CN(C)C(=O)CN(C)C(=O)[C@H]([C@@H](C)CC)NC(=O)[C@H](CC(C)C)N(C)C(=O)C[C@@H](C(=O)N2CCOCC2)N(C)C(=O)[C@H](C2CCCC2)N(C)C(=O)C2(CCC2)NC(=O)[C@@H]2CCCN2C(=O)[C@H](CCc2ccc(C(F)(F)F)c(Cl)c2)NC(=O)CN(CC)C(=O)[C@@H]1Cc1ccc(C(F)(F)F)cc1 [PP1950] ([NMeL]I[Sar][Sar][NPrPhe(4-CF3)][NEtG][hPhe(3-Cl-4-CF3)]P[Ac4c][NMeGly(cPent)][NMeD]-Morpholide; lactam N-11) | – | – | 7.49 | B (a compound having 3 or more and less than 10 is denoted as B) | C (A compound having a KD ratio of 0.1 or more and less than 3 is denoted as C) | – | –
11 | CCO[C@@H]1C[C@H]2C(=O)NC3(CC(F)(F)C3)C(=O)N(C)[C@@H](C(CC)CC)C(=O)N3CCC[C@@H]3CC(=O)N(C)[C@@H](CC3CC3)C(=O)N[C@@H]([C@@H](C)CC)C(=O)N(C)CC(=O)N(C)[C@H]3C/C=C\CCN(C3=O)[C@@H](Cc3ccc(C(F)(F)F)cc3)C(=O)N(C)CC(=O)N[C@@H](CCc3cc(F)c(C(F)(F)F)c(F)c3)C(=O)N2C1 [PP1614] | – | – | 7.27 | – | – | A (a compound having 10 or more and less than 20 is denoted as A) | A (a compound having 10 or more and less than 20 is denoted as A)
12 | CCO[C@@H]1C[C@H]2C(=O)NC3(CCC3)C(=O)N(C)[C@@H](C3CCCC3)C(=O)N(C)[C@H](C(=O)N(C)C)CC(=O)N(C)[C@@H](CC(C)C)C(=O)N[C@@H]([C@@H](C)CC)C(=O)N3CC[C@H]3C(=O)N(C)[C@H]3CC(C)=C(C)CN(C3=O)[C@@H](Cc3ccc(C(F)(F)F)cc3)C(=O)N(C)CC(=O)N[C@@H](CCc3cc(F)c(C(F)(F)F)c(F)c3)C(=O)N2C1 [PP1047] | C (A compound having a KD ratio of 0.1 or more and less than 3 is denoted as C) | C (A compound having a KD ratio of 0.1 or more and less than 3 is denoted as C) | 6.93 | – | – | – | –
13 | CC[C@H](C)[C@@H]1NC(=O)[C@H](C2CC2)N(C)C(=O)C[C@@H](C(=O)N(C)CC)N(C)C(=O)[C@H](C2CCCC2)N(C)C(=O)C2(CCC2)NC(=O)[C@@H]2C[C@H](C)CN2C(=O)[C@H](CCc2cc(F)c(C(F)(F)F)c(F)c2)NC(=O)CN(C)C(=O)[C@H](Cc2ccc(C(F)(F)F)cc2)N2CC/C=C\C[C@@H](C2=O)N(C)C(=O)CN(C)C1=O [PP2080] | – | – | 7.75 | A (a compound having 10 or more and less than 20 is denoted as A) | A (a compound having 10 or more and less than 20 is denoted as A) | – | –
14 | CC[C@H](C)[C@@H]1NC(=O)[C@H](CC(C)C)N(C)C(=O)C[C@@H](C(=O)N2CCOCC2)N(C)C(=O)[C@H](C2CCCC2)N(C)C(=O)C2(CCCC2)NC(=O)[C@@H]2CCCN2C(=O)[C@H](CCc2ccc(C(F)(F)F)c(Cl)c2)NC(=O)CN(CC)C(=O)[C@H](Cc2ccc(C)cc2)N(CC)C(=O)[C@@H]2CCN2C(=O)[C@H](C)N(C)C1=O [PP0006] ([NMeL]I[NMeA][Aze][NEtPhe(4-Me)][NEtG][hPhe(3-Cl-4-CF3)]P[Ac5c][NMeGly(cPent)][NMeD]-Morpholide; lactam N-11) | C (A compound having a KD ratio of 0.1 or more and less than 3 is denoted as C) | C (A compound having a KD ratio of 0.1 or more and less than 3 is denoted as C) | 7.69 | – | – | – | –
